{"source": "paper PMC8753592", "about": "“Long-acting capsid inhibitor protects macaques from repeat SHIV challenges” (Nature, 2021)", "key": {"[1]": {"test": "Plasma GS-CA1 pharmacokinetics in the repeat SHIV challenge study", "type": "in vivo, rhesus macaques of Indian origin", "experimental": "For the challenge study, 24 outbred rhesus macaques of Indian origin were assigned to the three study groups with even sex and weight distributions. All animals were housed at Alpha Genesis (Yemassee, SC), and all procedures were conducted in compliance with all relevant local, state and federal regulations and were approved by the Alpha Genesis IACUC. […] The injection sites were monitored daily by veterinary staff for 3 days. Beginning in week 1, animals in all three groups were challenged by the intrarectal route with 1 ml of RPMI containing the specified dilution of a 3.62 × 10^3 TCID50 SHIV-SF162P3 stock. At each respective time point, the challenges were performed on the same day, using the same virus stock and inoculation method across the three groups. Whole blood was collected and processed into plasma and PBMCs as necessary to assess routine haematology, clinical chemistry, viral load and serology as well as for bioanalysis of drug levels. The animals were considered to be protected if they remained SHIV negative by plasma PCR assay and seronegative by enzyme immunoassay throughout the 15-week challenge phase and the 9-week follow-up.\nRhesus plasma samples were stored frozen at −80 °C."}, "[2]": {"settings": "ref Yant et al, Nat.Med, 2019;[4]; cited from earlier work"}, "HIV capsid": {"test_system": "HIV capsid", "settings": "ref Yant et al, Nat.Med, 2019;[4]; cited from earlier work"}, "[3]": {"settings": "both sexes, Indian origin, rhesus monkey, in vivo, sc, 150 mg/kg, 150 mg/kg single s.c., n=8, mean ± SD"}, "[4]": {"settings": "both sexes, Indian origin, rhesus monkey, in vivo, sc, 300 mg/kg, 300 mg/kg single s.c., n=8, mean ± SD"}, "[5]": {"settings": "both sexes, Indian origin, rhesus monkey, in vivo, sc, 150 mg/kg single s.c., n=8, mean ± SD"}, "[6]": {"settings": "both sexes, Indian origin, rhesus monkey, in vivo, sc, 300 mg/kg single s.c., n=8, mean ± SD"}}, "note": "“And” between values parts separate entries of the source, which are not always exact repeats. Identical values can stand only once. Like-named read-outs stand apart in the source and are kept apart here."}
{"compound": "CC(C)(C#Cc1ccc(-c2ccc(Cl)c3c(NS(=O)(=O)C4CC4)nn(CC(F)F)c23)c([C@H](Cc2cc(F)cc(F)c2)NC(=O)Cn2nc(C(F)F)c3c2C(F)(F)[C@@H]2C[C@H]32)n1)S(C)(=O)=O", "note": "[GS-CA1]", "values": [{"measurement": "time above the rhesus paEC95", "setting": "[1]; 150 mg/kg single s.c.", "result": "8–15 weeks"}, {"measurement": "time six times above the rhesus paEC95", "setting": "[1]; 150 mg/kg single s.c.", "result": "3–7 weeks"}, {"measurement": "Cmax", "setting": "[1]; 150 mg/kg single s.c., n=8, mean ± SD", "result": "3020 ± 1070", "unit": "nM"}, {"measurement": "Plasma GS-CA1", "setting": "[1]; 150 mg/kg single s.c., Week 1, individual animals", "result": 899.55, "unit": "nM"}, {"measurement": "Plasma GS-CA1", "setting": "[1]; 150 mg/kg single s.c., Week 2, individual animals", "result": 1188.65, "unit": "nM"}, {"measurement": "Plasma GS-CA1", "setting": "[1]; 150 mg/kg single s.c., Week 3, individual animals", "result": 497.91, "unit": "nM"}, {"measurement": "Plasma GS-CA1", "setting": "[1]; 150 mg/kg single s.c., Week 4, individual animals", "result": 153.01, "unit": "nM"}, {"measurement": "Plasma GS-CA1", "setting": "[1]; 150 mg/kg single s.c., Week 5, individual animals", "result": 181.45, "unit": "nM"}, {"measurement": "Plasma GS-CA1", "setting": "[1]; 150 mg/kg single s.c., Week 6, individual animals", "result": 238.73, "unit": "nM"}, {"measurement": "Plasma GS-CA1", "setting": "[1]; 150 mg/kg single s.c., Week 7, individual animals", "result": 104, "unit": "nM"}, {"measurement": "Plasma GS-CA1", "setting": "[1]; 150 mg/kg single s.c., Week 8, individual animals", "result": 126.07, "unit": "nM"}, {"measurement": "Plasma GS-CA1", "setting": "[1]; 150 mg/kg single s.c., Week 9, individual animals", "result": "74.21 nM and 60.58 nM"}, {"measurement": "Plasma GS-CA1", "setting": "[1]; 150 mg/kg single s.c., Week 10, individual animals", "result": "50.06 nM and 64.16 nM"}, {"measurement": "Plasma GS-CA1", "setting": "[1]; 150 mg/kg single s.c., Week 11, individual animals", "result": "28.74 nM and 29.18 nM"}, {"measurement": "Plasma GS-CA1", "setting": "[1]; 150 mg/kg single s.c., Week 12, individual animals", "result": "46.73 nM and 64.14 nM"}, {"measurement": "Plasma GS-CA1", "setting": "[1]; 150 mg/kg single s.c., Week 13, individual animals", "result": 44.36, "unit": "nM"}, {"measurement": "Plasma GS-CA1", "setting": "[1]; 150 mg/kg single s.c., Week 14, individual animals", "result": 34.07, "unit": "nM"}, {"measurement": "Plasma GS-CA1", "setting": "[1]; 150 mg/kg single s.c., Week 15, individual animals", "result": 17.38, "unit": "nM"}, {"measurement": "Plasma GS-CA1", "setting": "[1]; 150 mg/kg single s.c., Week 16, individual animals", "result": 12.74, "unit": "nM"}, {"measurement": "Plasma GS-CA1", "setting": "[1]; 150 mg/kg single s.c., Week 17, individual animals", "result": 16.54, "unit": "nM"}, {"measurement": "Plasma GS-CA1", "setting": "[1]; 150 mg/kg single s.c., Week 18, individual animals", "result": 11.37, "unit": "nM"}, {"measurement": "Plasma GS-CA1", "setting": "[1]; 150 mg/kg single s.c., Week 19, individual animals", "result": 19.32, "unit": "nM"}, {"measurement": "Plasma GS-CA1", "setting": "[1]; 150 mg/kg single s.c., Week 20, individual animals", "result": 17.47, "unit": "nM"}, {"measurement": "Plasma GS-CA1", "setting": "[1]; 150 mg/kg single s.c., Week 21, individual animals", "result": 4.49, "unit": "nM"}, {"measurement": "Plasma GS-CA1", "setting": "[1]; 150 mg/kg single s.c., Week 22, individual animals", "result": 3.38, "unit": "nM"}, {"measurement": "Plasma GS-CA1", "setting": "[1]; 150 mg/kg single s.c., Week 23, individual animals", "result": 2.14, "unit": "nM"}, {"measurement": "Plasma GS-CA1", "setting": "[1]; 150 mg/kg single s.c., Week 24, individual animals", "result": 4.67, "unit": "nM"}, {"measurement": "time above the rhesus paEC95", "setting": "[1]; 300 mg/kg single s.c.", "result": "14–16 weeks"}, {"measurement": "time six times above the rhesus paEC95", "setting": "[1]; 300 mg/kg single s.c.", "result": "5–8 weeks"}, {"measurement": "Cmax", "setting": "[1]; 300 mg/kg single s.c., n=8, mean ± SD", "result": "5530 ± 1470", "unit": "nM"}, {"measurement": "concentration at 12 week", "setting": "[1]; both sexes, Indian origin (outbred), rhesus monkey, in vivo, 300 mg/kg, Plasma GS-CA1, GS-CA1 300mg/kg, Week 12, individual animals", "result": 83.4, "unit": "nM"}, {"measurement": "concentration at 15 week", "setting": "[1]; both sexes, Indian origin (outbred), rhesus monkey, in vivo, 300 mg/kg, Plasma GS-CA1, GS-CA1 300mg/kg, Week 15, individual animals", "result": 45.4, "unit": "nM"}, {"measurement": "concentration at 12 weeks", "setting": "[1]; both sexes, Indian origin, outbred, rhesus monkey, in vivo, 300 mg/kg, Plasma GS-CA1, 300 mg/kg single s.c., Week 12, individual animals", "result": 83.4, "unit": "nM"}, {"measurement": "concentration at 15 weeks", "setting": "[1]; both sexes, Indian origin, outbred, rhesus monkey, in vivo, 300 mg/kg, Plasma GS-CA1, 300 mg/kg single s.c., Week 15, individual animals", "result": 45.4, "unit": "nM"}, {"measurement": "Cmax", "setting": "[1]; [3]", "result": 3000, "unit": "nM"}, {"measurement": "Tmax", "setting": "[1]; [3]", "result": "~1", "unit": "days"}, {"measurement": "Cmax", "setting": "[1]; [4]", "result": 5500, "unit": "nM"}, {"measurement": "Tmax", "setting": "[1]; [4]", "result": "~1.75", "unit": "days"}, {"measurement": "AUC(0-inf)", "setting": "[1]; [5]", "result": "960 ± 435", "unit": "µM·h"}, {"measurement": "AUC(0-t)", "setting": "[1]; [5]", "result": "959 ± 435", "unit": "µM·h"}, {"measurement": "half-life", "setting": "[1]; both sexes, Indian origin, rhesus monkey, in vivo, sc, 150 mg/kg single s.c., n=8, mean ± SD, read-out: t1/2 (converted)", "result": "13.2 ± 5.5", "unit": "days"}, {"measurement": "AUC(0-inf)", "setting": "[1]; [6]", "result": "2040 ± 722", "unit": "µM·h"}, {"measurement": "AUC(0-t)", "setting": "[1]; [6]", "result": "2040 ± 722", "unit": "µM·h"}, {"measurement": "half-life", "setting": "[1]; both sexes, Indian origin, rhesus monkey, in vivo, sc, 300 mg/kg single s.c., n=8, mean ± SD, read-out: t1/2 (converted)", "result": "12 ± 1.88", "unit": "days"}, {"measurement": "half-life", "setting": "[1]; both sexes, Indian origin, rhesus monkey, in vivo, range over the 150 and 300 mg/kg groups, read-out: mean half-life", "result": "12 to 13.2", "unit": "days"}, {"measurement": "T1/2, human cryopreserved hepatocytes", "setting": "[2]", "result": 5.42, "unit": "days"}, {"measurement": "Inhibits nuclear import (early-stage)", "setting": "HIV capsid", "result": "Yes"}, {"measurement": "Inhibits proper capsid assembly (late-stage)", "setting": "HIV capsid", "result": "Yes"}, {"measurement": "Inhibits virus production (late-stage)", "setting": "HIV capsid", "result": "Yes"}]}
